Measured values published in PubChem BioAssay AID200 (DTP/NCI, 2004).
Values joined by “and” are separate entries in the source; they are usually repeats but may differ in a detail not shown here. Equal values may be shown once. Inconclusive results and toxic doses are left out.

Tested on: B6C3F1 mice, B16 melanoma ip, median survival T/C
Assay: NCI In Vivo Anticancer Drug Screen. Data for tumor model B16 Melanoma (intraperitoneal) in B6C3F1 mice
Details: endpoint: median survival time, schedule: Q01DX009 (ip), higher = longer survival
Outline: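 Transplantable tumor in mice; treated vs vehicle control groups; survival or tumor size measured; value = T/C ratio.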

[1] = dose: 50.0 mg/kg/injection, vehicle: saline with Tween-80
[2] = dose: 100.0 mg/kg/injection, vehicle: saline with Tween-80
[3] = dose: 2.5 mg/kg/injection, vehicle: saline with Tween-80
[4] = dose: 5.0 mg/kg/injection, vehicle: saline with Tween-80
[5] = dose: 25.0 mg/kg/injection, vehicle: saline with Tween-80
[6] = dose: 25.0 mg/kg/injection, vehicle: saline
[7] = dose: 50.0 mg/kg/injection, vehicle: saline
[8] = dose: 0.75 mg/kg/injection, vehicle: Klucel (hydroxypropylcellulose) (HPC)
[9] = dose: 12.0 mg/kg/injection, vehicle: Klucel (hydroxypropylcellulose) (HPC)
[10] = dose: 50.0 mg/kg/injection, vehicle: Klucel (hydroxypropylcellulose) (HPC)
[11] = dose: 100.0 mg/kg/injection, vehicle: Klucel (hydroxypropylcellulose) (HPC)

Nc1n[nH]c2ccccc12
T/C (dose: 25.0 mg/kg/injection, vehicle: acid diluted with saline): 101 % of control | T/C (dose: 50.0 mg/kg/injection, vehicle: acid diluted with saline): 102 % of control | T/C (dose: 100.0 mg/kg/injection, vehicle: acid diluted with saline): 95 % of control | T/C (dose: 200.0 mg/kg/injection, vehicle: acid diluted with saline): 88 % of control

O=C(CCl)NC(Cc1ccc(O)cc1)C(=O)O (configuration not stated)
T/C [1]: 93 % of control | T/C [2]: 87 % of control

COc1cc2cc(c1Cl)N(C)C(=O)CC(OC(=O)C(C)N(C)C(=O)C(C)C)C1(C)OC1C(C)C1CC(O)(NC(=O)O1)C(OC)/C=C/C=C(C)C2OC (configuration not stated)
T/C (dose: 2.0 micrograms/kg/injection, vehicle: Klucel (hydroxypropylcellulose) (HPC)): 196 % of control | T/C (dose: 4.0 micrograms/kg/injection, vehicle: Klucel (hydroxypropylcellulose) (HPC)): 157 % of control and 165 % of control and 213 % of control | T/C (dose: 4.0 micrograms/kg/injection, vehicle: distilled water + alcohol): 103 % of control | T/C (dose: 8.0 micrograms/kg/injection, vehicle: Klucel (hydroxypropylcellulose) (HPC)): 172 % of control and 185 % of control and 245 % of control | T/C (dose: 8.0 micrograms/kg/injection, vehicle: distilled water + alcohol): 101 % of control | T/C (dose: 16.0 micrograms/kg/injection, vehicle: Klucel (hydroxypropylcellulose) (HPC)): 172 % of control and 194 % of control and 232 % of control | T/C (dose: 16.0 micrograms/kg/injection, vehicle: distilled water + alcohol): 114 % of control | T/C (dose: 32.0 micrograms/kg/injection, vehicle: Klucel (hydroxypropylcellulose) (HPC)): 183 % of control and 207 % of control | T/C (dose: 32.0 micrograms/kg/injection, vehicle: distilled water + alcohol): 119 % of control and 122 % of control | T/C (dose: 64.0 micrograms/kg/injection, vehicle: distilled water + alcohol): 105 % of control | T/C (dose: 128.0 micrograms/kg/injection, vehicle: distilled water + alcohol): 114 % of control

COc1cc2c(cc1OC)-c1c3c(cc4c1[C@@H](C2)N(C)CC4)OCO3
T/C (dose: 6.25 mg/kg/injection, vehicle: distilled water + Tween-80): 98 % of control | T/C (dose: 12.5 mg/kg/injection, vehicle: distilled water + Tween-80): 89 % of control | T/C (dose: 25.0 mg/kg/injection, vehicle: distilled water + Tween-80): 104 % of control | T/C (dose: 50.0 mg/kg/injection, vehicle: distilled water + Tween-80): 92 % of control

COc1ccc2c(c1)-c1nn(CCCN(C)C)c3ccc([N+](=O)[O-])c(c13)N2
T/C (dose: 1.56 mg/kg/injection, vehicle: water): 110 % of control | T/C (dose: 3.12 mg/kg/injection, vehicle: water): 116 % of control and 122 % of control

CCOC(=O)Nc1cc2c(c(N)n1)N=C(c1ccccc1)CN2
T/C (dose: 1.25 mg/kg/injection, vehicle: saline with Tween-80): 96 % of control | T/C [3]: 102 % of control | T/C [4]: 107 % of control

CCCCNP1(NCCCC)=NP(NCCCC)(NCCCC)=NP(NCCCC)(NCCCC)=NP(NCCCC)(NCCCC)=N1
T/C (dose: 6.25 mg/kg/injection, vehicle: saline with Tween-80): 111 % of control and 98 % of control | T/C (dose: 12.5 mg/kg/injection, vehicle: saline with Tween-80): 115 % of control and 122 % of control and 101 % of control | T/C [5]: 119 % of control and 104 % of control | T/C [1]: 115 % of control

Clc1cc(Cl)nc(N2CC2)n1
T/C [3]: 108 % of control | T/C [4]: 102 % of control | T/C (dose: 10.0 mg/kg/injection, vehicle: saline with Tween-80): 106 % of control

O=[N+]([O-])O.[Ga]
T/C (dose: 4.0 mg/kg/injection, vehicle: saline): 105 % of control | T/C (dose: 4.0 mg/kg/injection, vehicle: water): 99 % of control | T/C (dose: 8.0 mg/kg/injection, vehicle: saline): 98 % of control | T/C (dose: 8.0 mg/kg/injection, vehicle: water): 95 % of control | T/C (dose: 16.0 mg/kg/injection, vehicle: saline): 101 % of control | T/C (dose: 16.0 mg/kg/injection, vehicle: water): 100 % of control | T/C [6]: 101 % of control | T/C (dose: 32.0 mg/kg/injection, vehicle: saline): 95 % of control | T/C (dose: 32.0 mg/kg/injection, vehicle: water): 97 % of control | T/C [7]: 100 % of control | T/C (dose: 64.0 mg/kg/injection, vehicle: saline): 91 % of control | T/C (dose: 64.0 mg/kg/injection, vehicle: water): 96 % of control

N=C1C=C[C@]2(O)C[C@H](Cl)CN12
T/C (dose: 0.75 mg/kg/injection, vehicle: saline): 102 % of control | T/C (dose: 1.5 mg/kg/injection, vehicle: saline): 111 % of control | T/C (dose: 3.0 mg/kg/injection, vehicle: saline): 119 % of control | T/C (dose: 6.0 mg/kg/injection, vehicle: saline): 104 % of control

CN(C)c1cccc(F)c1C(=O)NC(=O)Nc1ccc(Cl)cc1
T/C (dose: 37.5 mg/kg/injection, vehicle: saline with Tween-80): 97 % of control | T/C (dose: 75.0 mg/kg/injection, vehicle: saline with Tween-80): 111 % of control | T/C (dose: 150.0 mg/kg/injection, vehicle: saline with Tween-80): 101 % of control

O=C1NC(=O)NC(C(=O)O)N1
T/C [8]: 108 % of control | T/C (dose: 1.5 mg/kg/injection, vehicle: Klucel (hydroxypropylcellulose) (HPC)): 106 % of control | T/C (dose: 3.0 mg/kg/injection, vehicle: Klucel (hydroxypropylcellulose) (HPC)): 116 % of control | T/C (dose: 6.0 mg/kg/injection, vehicle: Klucel (hydroxypropylcellulose) (HPC)): 106 % of control | T/C [9]: 107 % of control

CC1=CCC[C@@H]2C1(C)CCC(C)[C@@]2(C)CC1=CC(=O)C=CC1=O (some centres not stated)
T/C [8]: 93 % of control | T/C (dose: 1.25 mg/kg/injection, vehicle: Klucel (hydroxypropylcellulose) (HPC)): 95 % of control

O=C(NC(Cc1ccccc1)C(=O)O)OCc1ccccc1 (configuration not stated)
T/C [10]: 99 % of control | T/C [11]: 102 % of control

CCOC(=O)C(CC(C)C)NC(=O)C(N)Cc1ccc(N(CCCl)CCCl)cc1 (configuration not stated)
T/C (dose: 1.25 mg/kg/injection, vehicle: water): 113 % of control | T/C (dose: 2.5 mg/kg/injection, vehicle: water): 113 % of control and 102 % of control

CC(=O)Oc1c(C)[nH]ccc1=O
T/C [6]: 93 % of control and 104 % of control | T/C [7]: 108 % of control and 105 % of control | T/C (dose: 100.0 mg/kg/injection, vehicle: saline): 115 % of control and 94 % of control | T/C (dose: 200.0 mg/kg/injection, vehicle: saline): 94 % of control and 106 % of control

CNC[C@@H](O)c1ccc(O)c(O)c1
T/C (dose: 0.75 mg/kg/injection, vehicle: suspension in saline): 114 % of control | T/C (dose: 1.5 mg/kg/injection, vehicle: suspension in saline): 115 % of control | T/C (dose: 3.0 mg/kg/injection, vehicle: suspension in saline): 99 % of control

CC1Nc2ccccc2NC1C (configuration not stated)
T/C [5]: 108 % of control | T/C [1]: 98 % of control | T/C [2]: 96 % of control

NC(=O)CCC(NC(=O)OCc1ccccc1)C(=O)NCC(=O)O (configuration not stated)
T/C [9]: 110 % of control | T/C (dose: 25.0 mg/kg/injection, vehicle: Klucel (hydroxypropylcellulose) (HPC)): 98 % of control | T/C [10]: 118 % of control | T/C [11]: 95 % of control | T/C (dose: 200.0 mg/kg/injection, vehicle: Klucel (hydroxypropylcellulose) (HPC)): 98 % of control | T/C (dose: 400.0 mg/kg/injection, vehicle: Klucel (hydroxypropylcellulose) (HPC)): 103 % of control

CC(C)(C)OC(=O)NCCCCC(NC(=O)OC(C)(C)C)C(=O)O (configuration not stated)
T/C [1]: 97 % of control | T/C [2]: 104 % of control | T/C (dose: 200.0 mg/kg/injection, vehicle: saline with Tween-80): 95 % of control
